The test system of test [1] is Arabidopsis thaliana. The test is described as follows: MOA1 phenotypic profiling of sprayed plants (eleven phenotypic characteristics). The class given is in vivo. The settings on record: hierarchical cluster analysis of eleven phenotypic characteristics.
The test system of test [2] is Arabidopsis thaliana. The test is described as follows: MOA1 biochemical (metabolite) profiling by LC-MS and GC-MS. The settings on record: 20 minutes and 1 hour after spraying.
Test [3] has as its system Arabidopsis thaliana plants. The test is described as follows: SOA1 phenotypic analysis of herbicide-treated plants (MIC, Tmic, leaf traits, symptom class). The format is in vivo. The settings on record: for Characteristic symptoms of treated plants (in words): SOA1 phenotypic analysis.
For test [4], the system named is Arabidopsis thaliana. The test is described as follows: MOA1 gene expression profiling (arrays of 22,000 Arabidopsis genes). Conditions: for No. of Lethal Genes Altered: altered genes identified as essential for plant growth in internal database.
A further test has as its system Magnaporthe grisea. The class given is cell-based.
The test system of test [5] is Saccharomyces cerevisiae wild type strain BY4743. The test is described as follows: AF1 yeast metabolite analysis by GC-MS and LC-MS after antifungal drug treatment. The format is cell-based. Conditions: for # Compounds perturbed by treatment: 2X MIC, two hours.
The next test deals with yeast cells. The test is described as follows: AF1 combined gene expression and metabolite data mapped to KEGG reactions and pathways. Also on record: species or system Saccharomyces cerevisiae. From the text: The pathway score indicates how meaningful the mapping is, or how likely it is to be correctly indicative of the pathway involved in the perturbation under examination. The method provides a pathway score based on perturbation levels of genes and/or compounds and the information content of each gene and/or compound in the pathway, i.e., a pathway score indicates the extent to which other pathways are mapped to a gene/compound. For example, imagine that two genes are perturbed in a particular experiment. One gene maps to only one pathway, giving a high degree of probability that the perturbed pathway is the one identified in the mapping. The second gene maps to three pathways. In the later example, there is only one-third the probability that the pathway identified in the mapping is the one perturbed. […] Degree of perturbation can be calculated, for example, based on a number of standard deviations from a norm, and included in an equation such as the one shown above, so that not only the number of pathways is taken into account, but also accounts for the amount of gene transcript, or compound present as compared to a control. […] KEGG links 676 compounds measured in AF1 to a total of 92 pathways. Of the 676 compounds under consideration, 77 were detected in the AF1 samples. […]

Where [6] appears, read: numeric value standardized to mock treated plants, SOA1.

“Also recorded” adds a separate entry of the source.

Experimental findings from patent publication US20040019429A1, “Methods and systems for analyzing complex biological systems” (priority 2001, published 2004) are described below.

`CC(C)OC(=O)Nc1cccc(Cl)c1` [Chloropropham]: the “Phenotype and phenotypic clustering (in words)” value with Arabidopsis thaliana [1] was “neither showed a strong herbicidal phenotype”. For the same compound, the “Regulated metabolites relative to control (in words)” value in the test on Arabidopsis thaliana [2] is reported as “neither butylate nor chlorpropham treatment resulted in many changes in these commonly regulated metabolites”.
`CP(=O)(O)CCC(N)C(=O)O` (stereo not shown) [Glufosinate]: in test [3], the “Characteristic symptoms of treated plants (in words)” value was “Chlorosis and leaf curling”. In addition, in test [3] (setting [6]), the “leafCurling (Dev.)” value was determined as 2, the “leafTwisting (Dev.)” value stood at 1, the “leafWidth (Dev.)” value was −2 and the “matureLeafAnthocyanins (Dev.)” value is on record as 0. Moreover, in test [3] (setting [6]), the “matureLeafChlorosis (Dev.)” value worked out at 3, the “matureLeafNecrosis (Dev.)” value amounted to 0, the “newLeafAnthocyanins (Dev.)” value is on record as 0 and the “newLeafChlorosis (Dev.)” value came to 3. In test [3] (setting [6]), the “newLeafNecrosis (Dev.)” value is recorded as 0 and the “pointedLeaves (Dev.)” value came to 1. The “tMic (Dev.)” value in test [3] (score for time to full range of symptoms at the MIC, SOA1) came out at 1. The “Regulated Genes Following Herbicide Treatment: Down” value with Arabidopsis thaliana [4] (1 hr, p < 0.5, number of genes of 22,000) was 54. Moreover, the “No. of Lethal Genes Altered” value with Arabidopsis thaliana [4] (1 hr) is 10. Also, the “Regulated metabolites relative to control (in words)” value in the test on Arabidopsis thaliana [2] was “Only a few, if any, stress-related metabolites were observed”. For the same compound, the “Growth of M. grisea on various nitrogen sources, Tier 4” value with Magnaporthe grisea is “only able to utilize glutamine and glutamate as nitrogen sources”.
`CS(=O)(=O)c1cc(C(F)(F)F)ccc1C(=O)c1cnoc1C1CC1` [Isoxaflutole]: the “Gene expression perturbation (in words)” value in the test on Arabidopsis thaliana [4] (MOA1, one-hour time point) is given as “alterations in the expression of genes involved in the homogentisate biosynthetic pathway were not observed”. For the same compound, in the test on Arabidopsis thaliana [4] (1 hr), the “No. of Lethal Genes Altered” value came to 15. The “Regulated metabolites relative to control (in words)” value with Arabidopsis thaliana [2] was “both tyrosine and phenylalanine were up-regulated relative to the control; also recorded: Alpha-tocopherol was detected, but the levels were not significantly changed relative to the control at the early time points; also recorded: (tyrosine and phenylalanine), began to accumulate relative to the control after one hour”. Besides, in the test on Magnaporthe grisea (concentration insufficient to inhibit growth), the “Growth of M. grisea at a sub-inhibitory concentration (minimal, supplemented, minimal plus tyrosine media)” value is on record as “growth was inhibited in minimal plus tyrosine media, while growth in minimal media was unaffected”.
With `CCSC(=O)N(CC(C)C)CC(C)C` [Butylate], the “Phenotype and phenotypic clustering (in words)” value in the test with Arabidopsis thaliana [1] is on record as “neither showed a strong herbicidal phenotype”. Besides, the “Regulated metabolites relative to control (in words)” value in the test on Arabidopsis thaliana [2] is “neither butylate nor chlorpropham treatment resulted in many changes in these commonly regulated metabolites”.
For the compound `Nc1nc[nH]n1` [Amitrole], the “Phenotype and phenotypic clustering (in words)” value in the test on Arabidopsis thaliana [1] was “exhibited chlorosis and not true bleaching”. The “Characteristic symptoms of treated plants (in words)” value in test [3] was “leaf bleaching and leaf enlargement”.
With `C[C@@H]1[C@H](O)[C@@H](C)/C=C/C=C/C=C/C=C/C=C/C=C/C=C/[C@H](O[C@@H]2O[C@H](C)[C@@H](O)[C@H](N)[C@@H]2O)C[C@@H]2O[C@](O)(C[C@@H](O)C[C@@H](O)[C@H](O)CC[C@@H](O)C[C@@H](O)CC(=O)O[C@H]1C)C[C@H](O)[C@H]2C(=O)O` [Amphoteracin B], the “# Compounds perturbed by treatment” value in test [5] (P < 0.05) came to 16. In addition, the “# Compounds perturbed by treatment” value in test [5] (P < 0.1) is 21. In test [5] (platform LC), the “Fold Change, abscisic acid” value came out at 0; the “Fold Change, adenosine” value is on record as 0; the “Fold Change, riboflavin” value was 0. For the same compound, the “Fold Change, selenoOLmethionine” value in test [5] (platform nLC) is listed as 0.8515. Further, in the test on yeast cells, the “Number Of Pathways Having at Least One Enzyme and One Compound Perturbed (# Reactions)” value came to 37; the “Number of Reactions Having an Enzyme and at Least One Compound Perturbed” value came out at 54.
